Measured values from paper PMC11876601 (Molecular Systems Biology, 2025).
Read-outs that look alike come from different tables or passages of the source.

Tested on: Suit2-07 cells
Experiment: Cell proliferation assay, GEM + ATR inhibitor (Incucyte confluence, 72 h);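 note: Suit2-07 cells grown in 96-well plates at 37 °C, 5% CO2, raw 72 h confluence taken without normalizing to starting confluence, each experiment done in triplicate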
Format: cell-based, human
Details: Suit2-07; for EC50: Homo sapiens, 72 h; for Ratio: Response to Response vehicle (mean); for Ratio / Response: R1; for Curve bottom / Curve top: plateau of fitted curve, ratio drug/vehicle confluence
[1] = GEM+ATRi_dose3, GEM 30 nM + ATRi 30 nM
[2] = experiment ATRi (ATR inhibitor alone)

Protocol: Cells were seeded at 5000 cells/well into 96-well flat bottom plates (Eppendorf) and allowed to attach overnight. […] Cells were incubated for 72 h at 37 °C and 5% CO2. Cell confluence readouts at 72 h were either normalized to their initial confluence using the Incucyte software (AsPC-1) or used without prior normalization (all others). […] Each experiment was performed in triplicates, the data was plotted as mean ± standard deviation (s.d.).

Nc1nn2cc(F)cnc2c1C(=O)Nc1cncc(F)c1N1CCC(C(=O)N2CCN(C3COC3)CC2)CC1 [Gartisertib]
EC50 (experiment ATRi (ATR inhibitor alone), -log10 of EC50 [M], read-out: pEC50 (converted)): 3.39e-07 M
EC50 (experiment ATRi (ATR inhibitor alone), mean (one replicate), read-out: EC50 mean): 3.39e-07 M
EC50 (experiment ATRi (ATR inhibitor alone), replicate R1, read-out: EC50): 3.39e-07 M
Ratio (GEM+ATRi_dose1, GEM 0 nM + ATRi 10 nM): 1.02
Ratio (GEM+ATRi_dose1, GEM 1 nM + ATRi 10 nM): 1.01
Ratio (GEM+ATRi_dose1, GEM 3 nM + ATRi 10 nM): 0.93
Ratio (GEM+ATRi_dose1, GEM 10 nM + ATRi 10 nM): 0.23
Ratio (GEM+ATRi_dose1, GEM 30 nM + ATRi 10 nM): 0.15
Ratio (GEM+ATRi_dose1, GEM 100 nM + ATRi 10 nM): 0.15
Ratio (GEM+ATRi_dose1, GEM 300 nM + ATRi 10 nM): 0.12
Ratio (GEM+ATRi_dose1, GEM 1000 nM + ATRi 10 nM): 0.11
Ratio (GEM+ATRi_dose1, GEM 3000 nM + ATRi 10 nM): 0.09
Ratio (GEM+ATRi_dose2, GEM 0 nM + ATRi 3 nM): 0.98
Ratio (GEM+ATRi_dose2, GEM 1 nM + ATRi 3 nM): 0.98
Ratio (GEM+ATRi_dose2, GEM 3 nM + ATRi 3 nM): 0.26
Ratio (GEM+ATRi_dose2, GEM 10 nM + ATRi 3 nM): 0.16
Ratio (GEM+ATRi_dose2, GEM 30 nM + ATRi 3 nM): 0.13
Ratio (GEM+ATRi_dose2, GEM 100 nM + ATRi 3 nM): 0.13
Ratio (GEM+ATRi_dose2, GEM 300 nM + ATRi 3 nM): 0.11
Ratio (GEM+ATRi_dose2, GEM 1000 nM + ATRi 3 nM): 0.11
Ratio (GEM+ATRi_dose2, GEM 3000 nM + ATRi 3 nM): 0.09
Ratio (GEM+ATRi_dose3, GEM 0 nM + ATRi 30 nM): 0.97
Ratio (GEM+ATRi_dose3, GEM 1 nM + ATRi 30 nM): 0.93
Ratio (GEM+ATRi_dose3, GEM 3 nM + ATRi 30 nM): 0.37
Ratio (GEM+ATRi_dose3, GEM 10 nM + ATRi 30 nM): 0.18
Ratio [1]: 0.14
Ratio (GEM+ATRi_dose3, GEM 100 nM + ATRi 30 nM): 0.13
Ratio (GEM+ATRi_dose3, GEM 300 nM + ATRi 30 nM): 0.12
Ratio (GEM+ATRi_dose3, GEM 1000 nM + ATRi 30 nM): 0.13
Ratio (GEM+ATRi_dose3, GEM 3000 nM + ATRi 30 nM): 0.08
Ratio (experiment ATRi, ATRi 3 nM, GEM 0 nM): 1.02
Ratio (experiment ATRi, ATRi 10 nM, GEM 0 nM): 1.01
Ratio (experiment ATRi, ATRi 30 nM, GEM 0 nM): 0.98
Ratio (experiment ATRi, ATRi 100 nM, GEM 0 nM): 0.96
Ratio (experiment ATRi, ATRi 300 nM, GEM 0 nM): 0.63
Ratio (experiment ATRi, ATRi 1000 nM, GEM 0 nM): 0.22
Ratio (experiment ATRi, ATRi 3000 nM, GEM 0 nM): 0.19
Ratio (experiment ATRi, ATRi 10000 nM, GEM 0 nM): 0.12
Response (GEM+ATRi_dose1, GEM 0 nM + ATRi 10 nM, in % (unit assumed)): 99.22
Response (GEM+ATRi_dose1, GEM 1 nM + ATRi 10 nM, in % (unit assumed)): 98.36
Response (GEM+ATRi_dose1, GEM 3 nM + ATRi 10 nM, in % (unit assumed)): 90.74
Response (GEM+ATRi_dose1, GEM 10 nM + ATRi 10 nM, in % (unit assumed)): 21.98
Response (GEM+ATRi_dose1, GEM 30 nM + ATRi 10 nM, in % (unit assumed)): 14.67
Response (GEM+ATRi_dose1, GEM 100 nM + ATRi 10 nM, in % (unit assumed)): 14.71
Response (GEM+ATRi_dose1, GEM 300 nM + ATRi 10 nM, in % (unit assumed)): 11.45
Response (GEM+ATRi_dose1, GEM 1000 nM + ATRi 10 nM, in % (unit assumed)): 10.53
Response (GEM+ATRi_dose1, GEM 3000 nM + ATRi 10 nM, in % (unit assumed)): 8.70
Response (GEM+ATRi_dose2, GEM 0 nM + ATRi 3 nM, in % (unit assumed)): 95.38
Response (GEM+ATRi_dose2, GEM 1 nM + ATRi 3 nM, in % (unit assumed)): 96.21
Response (GEM+ATRi_dose2, GEM 3 nM + ATRi 3 nM, in % (unit assumed)): 25.36
Response (GEM+ATRi_dose2, GEM 10 nM + ATRi 3 nM, in % (unit assumed)): 15.98
Response (GEM+ATRi_dose2, GEM 30 nM + ATRi 3 nM, in % (unit assumed)): 13.06
Response (GEM+ATRi_dose2, GEM 100 nM + ATRi 3 nM, in % (unit assumed)): 13.09
Response (GEM+ATRi_dose2, GEM 300 nM + ATRi 3 nM, in % (unit assumed)): 10.34
Response (GEM+ATRi_dose2, GEM 1000 nM + ATRi 3 nM, in % (unit assumed)): 10.34
Response (GEM+ATRi_dose2, GEM 3000 nM + ATRi 3 nM, in % (unit assumed)): 9.00
Response (GEM+ATRi_dose3, GEM 0 nM + ATRi 30 nM, in % (unit assumed)): 94.90
Response (GEM+ATRi_dose3, GEM 1 nM + ATRi 30 nM, in % (unit assumed)): 91.25
Response (GEM+ATRi_dose3, GEM 3 nM + ATRi 30 nM, in % (unit assumed)): 36.47
Response (GEM+ATRi_dose3, GEM 10 nM + ATRi 30 nM, in % (unit assumed)): 17.41
Response [1]: 13.78
Response (GEM+ATRi_dose3, GEM 100 nM + ATRi 30 nM, in % (unit assumed)): 12.30
Response (GEM+ATRi_dose3, GEM 300 nM + ATRi 30 nM, in % (unit assumed)): 12.12
Response (GEM+ATRi_dose3, GEM 1000 nM + ATRi 30 nM, in % (unit assumed)): 12.34
Response (GEM+ATRi_dose3, GEM 3000 nM + ATRi 30 nM, in % (unit assumed)): 7.88
Curve bottom [2]: 1.01
Curve top [2]: 0.15
Response (experiment ATRi, ATRi 3 nM, GEM 0 nM, in % (unit assumed)): 99.33
Response (experiment ATRi, ATRi 10 nM, GEM 0 nM, in % (unit assumed)): 98.82
Response (experiment ATRi, ATRi 30 nM, GEM 0 nM, in % (unit assumed)): 95.35
Response (experiment ATRi, ATRi 100 nM, GEM 0 nM, in % (unit assumed)): 93.53
Response (experiment ATRi, ATRi 300 nM, GEM 0 nM, in % (unit assumed)): 61.81
Response (experiment ATRi, ATRi 1000 nM, GEM 0 nM, in % (unit assumed)): 21.20
Response (experiment ATRi, ATRi 3000 nM, GEM 0 nM, in % (unit assumed)): 18.17
Response (experiment ATRi, ATRi 10000 nM, GEM 0 nM, in % (unit assumed)): 11.75
Curve bottom (experiment GEM+ATRi_dose1): 1.01
Curve top (experiment GEM+ATRi_dose1): 0.12
Curve bottom (experiment GEM+ATRi_dose2): 0.98
Curve top (experiment GEM+ATRi_dose2): 0.12
Curve bottom (experiment GEM+ATRi_dose3): 0.98
Curve top (experiment GEM+ATRi_dose3): 0.13
